Where two headings read alike, the source gives them in different places.

Test [1] deals with PHA-induced release of TNFα from peripheral blood mononuclear cells. The test can be described thus: Inhibition of PHA-induced release of TNFα from PBMC (L929 cytotoxicity read-out). The format is cell-based. As to conditions: Homo sapiens. The protocol:
(§1) For all the in vitro tests, peripheral blood mononuclear cells (PBMC) were obtained from the blood of healthy donors by density gradient centrifugation in Ficoll-Hypaque (Pharmacia, Uppsala). This isolation step separated monocytes and lymphocytes from the other blood constituents. Further working-up of this PBMC fraction was carried out in accordance Ad with the requirements of the test preparations described below.
(§2) The resulting PBMC were incubated on microtiter plates together with phythemagglutinin (PHA, 5 μg/ml). […] Incubation was carried out at 37° C. in 5% CO2 with protection from the light. After 20 hours (h) (TNFα determination), 24 h (IL-2 determination) or 120 h (IFNγ determination), the cell supernatants were tested for cytokine release. TNFα was determined via its cytotoxicity to L929 cells, IL-2 was quantified via the proliferation of CTL-L6 cells and IFNγ was determined using a sandwich ELISA.
The following test examined the dependence of the inhibition of PHA-induced cytokine formation on the type of so-called “calcium antagonist” added.

In test [2] the test system is patient with pronounced psoriasis. Description: Topical application to a single patient with pronounced psoriasis, subjective symptom scores. It is filed as in vivo, human. To be noted: after a 6-week application. The protocol:
The effect of the topical application of a combination according to the invention to a single patient with pronounced psoriasis was studied in a parallel comparison. For this purpose the test substances pentoxifylline and diltiazem, dissolved in 30 ml of polypropylene glycol/ethanol/water (1:1:1. v/v), were incorporated, individually or together, in a final concentration of 2% (pentoxifylline) or 1% (diltiazem), into a commercially available creamy skin care product (Nivea lotion), ultimately giving the following 4 different formulations:
A) lotion without test substance (=vehicle control)
B) lotion with 2% of pentoxifylline
C) lotion with 1% of diltiazem
D) lotion with 2% of pentoxifylline+1% of diltiazem
Twice a day for 6 weeks, these 4 formulations were applied locally, with rubbing, to areas of skin on the patient's trunk which were affected by pronounced symptoms of psoriasis and had previously been precisely defined, particular care being taken to ensure that the same formulation was always applied to the same area of skin. The therapeutic result was monitored visually and evaluated by means of the following subjective scores: […]

Test [3] concerns PHA-induced release of IL-2 from peripheral blood mononuclear cells. The test can be described thus: Inhibition of PHA-induced release of IL-2 from PBMC (CTL-L6 proliferation read-out). The format is cell-based. As to conditions: Homo sapiens. The procedure: as §1, §2
The test system of test [4] is PHA-induced release of IFNγ from peripheral blood mononuclear cells. The test can be described thus: Inhibition of PHA-induced release of IFNγ from PBMC (sandwich ELISA). To be noted: Homo sapiens, PHA 5 μg/ml, 120 h. The format is cell-based. The protocol: as §1, §2
For test [5], the system named is T lymphocytes stimulated via CD3/PMA. The test can be described thus: T lymphocyte proliferation (3H-thymidine), stimulation via CD3/PMA. The format is cell-based. To be noted: Homo sapiens, 72 h. The protocol:
as §1
(§3) The PBMC fraction was further fractionated to give pure T lymphocytes. This was done using Lympho-KWIK-T, a mixture of monoclonal antibodies from anti-monocytes and anti-B cells and complement, together with a mixture of monoclonal anti-NK and anti-monocyte antibodies with Leu 11 b (anti-CD16, IgM) and Leu 7 (anti-CD57, IgM) (One Lambda Inc., Los Angeles, Calif., USA). The isolation and purification of the T lymphocytes from the PBMC fraction was effected by means of the following process steps:
(§4) Monocytes are removed by cold agglutination.
30×10^6 of the cells obtained are incubated with 0.8 ml of Lympho-KWIK-T for 1 hour at 37° C. […]
After 64 h of incubation the cells were treated in each case with 1 μCi of ^3H-thymidine; 8 h later they were collected on glass fiber filters and the incorporated radioactivity was measured in a β counter. […]

Test [6] has as its system T lymphocytes stimulated via CD28/PMA. The test can be described thus: T lymphocyte proliferation (3H-thymidine), stimulation via CD28/PMA. The format is cell-based, human. The protocol:
as §1, §3, §4
30×10^6 of the cells obtained are incubated with 0.8 ml of Lympho-KWIK-T for 1 hour at 37° C.
The cells are washed three times and then incubated for 30 minutes at 4° C. with the mixture of monoclonal anti-NK and anti-monocyte antibodies.
The cells are washed once and re-incubated with 0.8 ml of Lympho-KWIK-T for 1 hour at 37° C.
After 64 h of incubation the cells were treated in each case with 1 μCi of ^3H-thymidine; 8 h later they were collected on glass fiber filters and the incorporated radioactivity was measured in a β counter.
The percentage inhibition of the T lymphocyte proliferation by the test substances was compared with a control not containing test substance, subtracting a basal value without monoclonal antibodies. The mean value from 4 parallel preparations was used for the evaluation.

As to `COc1ccc([C@@H]2Sc3ccccc3N(CCN(C)C)C(=O)[C@@H]2OC(C)=O)cc1` [Diltiazem, diltiazem], the inhibition at 10 µM in test [1] (Table 2, test substance alone, 10 μmol/l, read-out: percentage inhibition of the PHA-induced release of TNFα, test substance alone) worked out at 39 ± 13%. Moreover, the “psoriasis symptoms relative to the initial situation, in words” value in test [2] is reported as “practically no visible difference”.
On to `CCCC(=O)Nc1ncnc2c1ncn2[C@@H]1O[C@@H]2COP(=O)(O)O[C@H]2[C@H]1OC(=O)CCC` [db-cAMP, dibutyryl-cAMP], for which the inhibition at 0.1 µM in test [1] (0.1 μmol/l final concentration, PHA 5 μg/ml, 20 h) is 31 ± 13%; in test [3] (read-out: IL-2 % inhibition, 0.1 μmol/l final concentration, PHA 5 μg/ml, 24 h), 12 ± 4%; in test [4] (0.1 μmol/l final concentration), 15 ± 8%; in test [5] (0.1 μmol/l), 16 ± 6%; in test [6] (Homo sapiens, T-lymphocyte, 0.1 μmol/l, T lymphocytes, 72 h) it was 11 ± 6%. Besides, in test [6] (single substance, stimulation via CD28), the “activity on T lymphocyte activation via the CD28-dependent mechanism, in words” value is “practically inactive”.
In the case of `CC(=O)CCCCn1c(=O)c2c(ncn2C)n(C)c1=O` [pentoxifylline], the inhibition at 50 µM was 28 ± 10% in test [1] (50 μmol/l final concentration, PHA 5 μg/ml, 20 h, read-out: TNFα % inhibition); 28 ± 10% in test [1] (Table 2, pentoxifylline alone, 50 μmol/l, read-out: percentage inhibition of the PHA-induced release of TNFα, pentoxifylline); 14 ± 9% in test [3] (read-out: IL-2 % inhibition, 50 μmol/l final concentration, PHA 5 μg/ml, 24 h); 20 ± 9% in test [4] (50 μmol/l final concentration). Further, the inhibition at 40 µM was found to be 21 ± 7% in test [5] (40 μmol/l) and 28 ± 8% in test [6] (Homo sapiens, T-lymphocyte, 40 μmol/l, T lymphocytes, 72 h). In addition, the “psoriasis symptoms relative to the initial situation, in words” value in test [2] is on record as “improved only moderately”.

(Values after patent US6337325B1, “Combined preparation for the therapy of immune diseases” (Hoechst Aktiengesellschaft, priority 1994, dated 2002).)
